In US8865748B2, “Compounds and compositions for stabilizing hypoxia inducible factor-2 alpha as a method for treating cancer” (Akebia Therapeutics Inc., priority 2011, dated 2014):

Tests used:
[1] = tested on: tumor growth; assay: Tumor growth in LysMcre control mice and mice with myeloid-specific deletion of HIF-2α; assay type: in vivo; settings: FIG. 15
Excerpt: HIF-2α^flox/flox mice (originally developed by Dr. Celeste Simon, University of Pennsylvania) and LysMcre recombinase mice (originally developed by Irmgard Foerster, University of Duesseldorf) (both purchased from The Jackson Laboratory, Bar Harbor, Me.) were crossed to generate mice homozygous for both LysMcre and the floxed HIF-2α allele. LysMcre recombinase mice, which express no floxed alleles, were used as controls. Deletion of HIF-2α in HIF-2α^flox/flox/LysMcre macrophages, but not the LysMcre control macrophages, was confirmed at the transcript level by real-time PCR.
The disclosed HIF-2α stabilizer is not targeted specifically to macrophages, and will stabilize HIF-2α in all tissues, not only the tumor-associated macrophages. In order to determine the role of macrophages in the anti-tumor response to the disclosed HIF-2α stabilizer, mice with a myeloid-specific deletion of HIF-2α (HIF-2α^flox/flox/LysMcre mice) were utilized.

[2] = tested on: HIF-1α; assay: Immunoblot for HIF-1α in murine bone marrow-derived macrophages; assay type: cell-based; settings: treated for 18 hours, FIG. 11A
Method: (§1) To generate bone marrow-derived macrophages (BDMs), femoral bone marrow was isolated and progenitor cells were plated in RPMI-1640 supplemented with 10% FBS, 1% PSA, 10 μg/mL of polymyxin B, and 20 ng/mL of recombinant murine M-CSF. Cells were cultured for 5 days with the addition of fresh M-CSF every other day. Differentiated BDM were serum-starved for 2 hours and then treated with 100 ng/mL of murine GM-CSF and/or 25 μM the disclosed HIF-2α stabilizer in RPMI-1640 containing 1% FBS and 10 μg/mL polymixin B. Culture supernatants were collected after 72 hours and assayed for VEGF and sVEGFR-1 content by ELISA (R&D Systems).
(§2) In order to confirm the selective upregulation of HIF-2α by the disclosed HIF-2α stabilizer, murine bone marrow-derived macrophages were treated with the disclosed HIF-2α stabilizer for 18 hours, and cells were then lysed and immunoblotted for HIF-1α and HIF-2α.

[3] = tested on: phosphoglycerate kinase (PGK) mRNA; assay: Phosphoglycerate kinase (PGK) mRNA expression in wild type murine embryonic fibroblasts (quantitative PCR); assay type: cell-based; settings: hypoxic conditions (1% O2); 1, 10 and 100 μM; vs. hypoxia control; FIG. 2A
Method: Total RNA was isolated from tissues and cells by using TRIzol™ Reagent (Invitrogen) and the RNeasy kit (Qiagen), respectively. 1 μg RNA was used for reverse transcription using SuperScript II First-Strand Synthersis System (Invitrogen). cDNA's were amplified in a SYR Green or TaqMan Universal Master Mix (Applied Biosystems). Quantitative PCR (qPCR) was performed on ABI Prism 7700 sequence detection system. PCR conditions are: 10 min at 95° C., 40 cycles of 15 seconds at 95° C. and 1 minute at 60° C. The relative amount of mRNA was calculated after normalization to β-actin.
Cells were cultured in DMEM (#11965-092, Invitrogen) supplemented with 10% fetal bovine serum (Invitrogen), 100 U/mL penicillin and […] streptomycin. For glucose deprivation, DMEM without glucose (#11966-025, Invitrogen) was used.
Mouse embryonic fibroblasts (MEFs) were isolated from E12.5 embryos and immortalized by stable transfection with SV40 large T antigen.

[4] = tested on: HIF-2α; assay: Immunoblot for HIF-2α in murine bone marrow-derived macrophages; assay type: cell-based; settings: treated for 18 hours, FIG. 11A
Method: as §1, §2

[5] = tested on: sVEGFR-1; assay: sVEGFR-1 production by human peripheral blood monocytes (ELISA, real-time PCR); assay type: cell-based; settings: monocytes stimulated with 100 ng/mL GM-CSF, presence vs. absence of 10 μM stabilizer, FIG. 11B
Method: Human peripheral blood mononuclear cells (PBMCs) were isolated from fresh peripheral blood leukocyte source packs (American Red Cross, Columbus Ohio) by density gradient centrifugation over Lymphocyte Separation Medium (Cellgro). Monocytes were purified from total PBMCs by layering over FBS. Monocytes were cultured in endotoxin-free RPMI-1640 supplemented with 1% fetal bovine serum (FBS), 0.1% human serum albumin (HSA), and 10 μg/mL of the endotoxin inhibitor polymyxin B. In some experiments, freshly isolated monocytes were differentiated into macrophages by three-day culture in media containing 10% FBS, 1% PSA (penicillin G sodium, streptomycin sulfate, and amphotericin B), and 20 ng/mL M-CSF. Macrophages were serum-starved for 2 hours prior to stimulation. Monocytes or monocyte-derived macrophages were treated for 24 hours with 10 ng/mL GM-CSF, 10 μM disclosed HIF-2α stabilizer, or an equivalent volume of the vehicle controls (PBS or DMSO, respectively). Cell-free culture supernatants were harvested and analyzed for VEGF or sVEGFR-1 by ELISA (R&D Systems).
Human monocytes were left untreated or were stimulated with 100 ng/mL GM-CSF at normoxia or at 0.5% O2. At various time-points, cells were harvested in Trizol reagent (Invitrogen) and RNA was extracted in chloroform and then purified using the RNeasy Minikit (Qiagen). […] Data were analyzed according to the comparative threshold method and normalized against the β-actin internal control transcript. Results are semi-quantitative and represent the fold difference in transcript levels in a particular sample as compared with levels in untreated cells from the same donor.
Since monocyte production of VEGF was dependent on HIF-1α, the inventors herein determined whether selective stabilization of HIF-1α via inhibition of PHD2 would increase monocyte production of VEGF but not sVEGFR-1. […]

[6] = mice with HIF-2α-deficient macrophages

SMILES: O=C(O)CNC(=O)c1ncc(-c2cccc(F)c2)cc1O [disclosed HIF-2α stabilizer, {[5-(3-Fluorophenyl)-3-hydroxypyridine-2-carbonyl]amino}acetic acid]
- tumor growth ([1]; LysMcre control mice): inhibited tumor growth
- magnitude of the anti-tumor response relative to control mice [1, 6]: much less
- tumor growth [1, 6]: reduced tumor growth
- HIF-1α protein [2]: no corresponding increase
- PGK mRNA (relative amount) [3]: dramatic reduction
- HIF-2α protein [4]: increase
- sVEGFR-1 production, protein level ([5]; p=0.007): increased significantly
- sVEGFR-1 production, transcript level ([5]; p=0.033): increased significantly
